Laboratory results: PMC12339982 (Nature Communications, 2025)
Positions count from the first letter of the chain named.

Tests used:
TauT S402A mutant = molecular target: T1, TauT S402A mutant (Homo sapiens, UniProt P31641, S402A); experiment: MST binding, TauT S402A; details: mean ± s.e.m., n=3
T1 sequence (P31641 1-620 S402A): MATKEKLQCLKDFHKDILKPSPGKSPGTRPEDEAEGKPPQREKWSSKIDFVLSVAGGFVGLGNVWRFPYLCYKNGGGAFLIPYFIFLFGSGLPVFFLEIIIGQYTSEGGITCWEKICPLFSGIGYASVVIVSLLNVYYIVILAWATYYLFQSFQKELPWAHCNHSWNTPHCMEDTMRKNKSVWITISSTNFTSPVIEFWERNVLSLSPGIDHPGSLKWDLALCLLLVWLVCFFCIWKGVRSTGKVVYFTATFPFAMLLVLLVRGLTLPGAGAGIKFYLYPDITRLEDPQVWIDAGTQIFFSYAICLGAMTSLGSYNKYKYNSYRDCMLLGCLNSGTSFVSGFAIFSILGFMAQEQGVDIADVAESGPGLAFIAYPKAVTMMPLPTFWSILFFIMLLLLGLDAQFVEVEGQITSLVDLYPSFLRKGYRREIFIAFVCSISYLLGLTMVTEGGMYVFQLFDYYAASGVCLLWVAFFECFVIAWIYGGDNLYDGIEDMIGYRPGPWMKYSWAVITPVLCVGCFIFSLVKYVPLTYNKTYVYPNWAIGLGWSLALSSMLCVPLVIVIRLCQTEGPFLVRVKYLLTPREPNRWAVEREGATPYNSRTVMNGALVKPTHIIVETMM

TauT^EM = molecular target: T2, TauT^EM (Homo sapiens, UniProt P31641, D486N/D490E/E493R/G491D/K319H/L488F/N487R/R499P/S322V/Y320N/Y489S/Y498F); experiment: MST binding, TauT^EM; details: compared with TauT^WT
T2 sequence (P31641 1-620 K319H/Y320N/S322V/D486N/N487R/L488F/Y489S/D490E/G491D/E493R/Y498F/R499P): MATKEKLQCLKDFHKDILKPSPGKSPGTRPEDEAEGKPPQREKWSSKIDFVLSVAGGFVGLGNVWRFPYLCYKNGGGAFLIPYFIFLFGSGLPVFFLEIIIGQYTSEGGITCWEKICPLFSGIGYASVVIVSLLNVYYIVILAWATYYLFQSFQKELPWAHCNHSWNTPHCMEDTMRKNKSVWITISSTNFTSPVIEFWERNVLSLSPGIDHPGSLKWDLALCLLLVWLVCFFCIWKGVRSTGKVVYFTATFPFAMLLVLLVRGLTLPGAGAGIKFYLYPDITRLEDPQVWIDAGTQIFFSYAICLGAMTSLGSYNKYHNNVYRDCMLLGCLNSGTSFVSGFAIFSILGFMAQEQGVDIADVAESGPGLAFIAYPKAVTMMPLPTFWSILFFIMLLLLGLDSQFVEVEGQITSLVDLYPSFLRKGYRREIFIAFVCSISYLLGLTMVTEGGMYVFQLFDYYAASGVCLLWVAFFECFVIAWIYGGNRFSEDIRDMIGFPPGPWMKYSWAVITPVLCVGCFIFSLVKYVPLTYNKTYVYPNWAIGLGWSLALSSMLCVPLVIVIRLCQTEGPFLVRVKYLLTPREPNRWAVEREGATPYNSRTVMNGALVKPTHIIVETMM

TauT^WT and variants [1] = molecular target: T3, TauT^WT and variants (Homo sapiens, UniProt P31641, E406C); experiment: [3H]γ-aminobutyric acid uptake by TauT^WT and variants in HEK293T cells; format: cell-based; details: mutation Glu406Cys
T3 sequence (P31641 1-620 E406C): T1 sequence (P31641 1-620 S402A) with A402S, E406C

TauT^WT and variants [2] = experiment: as above; format: cell-based, human; details: amino acid substitutions in Gly57, Phe58, Leu306

Row | Kd (MST) (TauT S402A mutant) | binding affinity (Kd, MST) of TauT^EM (TauT^EM) | Compound | transport activity of GABA (TauT^WT and variants [1]) | transport activity for GABA (TauT^WT and variants [2])
1 | undetectable binding | analogous to those of TauT^WT | NCCS(=O)(=O)O [Taurine, taurine] |  | 
2 |  |  | NCCCC(=O)O [GABA, γ-aminobutyric acid] | significant increase in the transport activity | decrease in transport activity
